# Assay results published in patent publication US12162934B2, “Gremlin-1 antagonist for the prevention and treatment of cancer” (UCB BIOPHARMA SRL, priority 2018, dated 2024).
# What was measured:
# [1] = system: PyMT-B01 mouse breast cancer cells; test: PyMT-B01 breast cancer model in C57BL6 mice (BLI); format: in vivo
# Protocol: PyMT-B01: 5-week old C57BL6 immunocompetent mice were subcutaneously (s.c) administered two 30 mg/kg doses of anti-Grem1 antibody Ab7326 or IgG control, Ab101.4, the week prior to tumour cell inoculation. 1×10^5 luciferase expressing PyMT-B01 mouse breast cancer cells were injected systemically via the caudal artery (CA).
# Treatment continued twice weekly for the duration of the study. At weekly intervals, mice were administered 150 mg/kg luciferin intraperitoneally (i.p) and imaged using the Xenogen IVIS Bioluminescence Imaging System, and tumour burden was quantitated using Living Image software. The study ended on day 13 and day 22 post-tumour cell injection for the PyMT-B01 and MDA-MB-231 models respectively, according to animal ethics requirements. Organs were dissected upon culling animals and BLI imaged ex vivo for analysis of tumour metastasis.
# rhGremlin-1 = target: T1, rhGremlin-1 (Homo sapiens, UniProt O60565); test: SMAD phosphorylation assay: restoration of p-SMAD signalling, lung fibroblasts from idiopathic pulmonary fibrosis patients; format: cell-based
# T1 sequence (O60565 25-184): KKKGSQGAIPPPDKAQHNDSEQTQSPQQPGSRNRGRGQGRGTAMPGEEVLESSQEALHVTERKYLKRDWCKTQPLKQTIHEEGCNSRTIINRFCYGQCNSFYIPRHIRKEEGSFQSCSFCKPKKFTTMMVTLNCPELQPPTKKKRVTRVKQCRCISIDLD
# Protocol: Antibodies were screened using the Hek-Id1 reporter gene assay described in Example 3 and by measuring SMAD phosphorylation. SMAD1, 5 and 8 are phosphorylated upon BMP signalling. Inhibitors of Gremlin-1 therefore increase SMAD phosphorylation.
# SMAD phosphorylation assays were conducted on A549 cells or on human lung fibroblasts. Phosphorylation levels were determined using MSD.
# Results are shown as a percentage of SMAD phosphorylation by BMP alone (control BMP). Experiments were performed using lung fibroblasts from idiopathic pulmonary fibrosis patients. rhGremlin-1 and the anti-Gremlin-1 antibodies were preincubated for 45 minutes at room temperature. rhGremlin-1 and the anti-Gremlin-1 antibodies were then added with BMP to the cells for 30 minutes.
# 5TGM1.Bmx1 MM PCs = test: 5TGM1/KaLwRij mouse model of multiple myeloma, antibody after tumour cell inoculation; format: in vivo; details: for Reduction in MM tumour burden (BLI): 30 mg/kg s.c. every 3 days from 3 days post-inoculation, 4 weeks
# Protocol: Targeting Grem1 in an immunocompetent murine model of systemic MM: C57BL/KaLwRij mice (6-8-week-old) were inoculated with 5×10^5 5TGM1.Bmx1 cells via tail vein injection. Three days post-inoculation with 5TGM1.Bmx1 MM PCs, KaLwRij mice were administered with 30 mg/kg Grem1-neutralising antibody Ab7326 or IgG control Ab101.4 (UCB-Pharma, UK) by subcutaneous (s.c.) injection. Mice were treated every 3 days for the duration of the 4-week model. Tumour burden was monitored weekly by BLI as previously described. At the end of the experiment, blood was collected by tail bleed, centrifuged at 2100 g for 10 min and serum collected. Serum paraprotein levels were analysed using the Hydragel 30 β1β2 kit (Sebia Electrophoresis, Georgia, USA) following the instructions of the manufacturer. The band corresponding to paraprotein was quantitated relative to serum albumin levels. (SAAMRI Animal Ethics SAM165)
# human Gremlin = target: T2, human Gremlin (Homo sapiens, UniProt O60565); test: Hek-Id1 reporter gene assay: anti-Gremlin-1 antibodies restoring BMP signalling blocked by human Gremlin; format: cell-based; details: 10-fold excess and 80% inhibition Gremlin-1 concentration
# T2 sequence (O60565 25-184): T1 sequence (O60565 25-184)
# From the text: The Hek Id1 reporter gene assay uses Clone 12 Hek293-Id1 reporter cells. This cell line was stably transfected with Id1 transcription factor. Id1 is a transcription factor in the BMP signalling pathway. Gremlin is known to bind BMPs prevent binding to their receptors reducing the luciferase signal from the reporter gene. Therefore, using this reporter assay, it is possible to screen anti-Gremlin antibodies and see if there are any that block the interaction of Gremlin with BMPs. A restoration of the luciferase signal is seen in these cells if there is a blocking of this interaction.
# Clone 12 cells were cultured in DMEM containing 10% FCS, 1× L-Glutamine & 1× NEAA. […]
# The cells were washed in PBS, lifted off using cell dissociation buffer, spun and counted before being seeded at 5×10^4/well in 70 μl (Density of 7.14×10^5/ml). […]
# Post incubation, 30 μl of sample was transferred per well of assay plate and incubated for 20-24 hours before measuring luminescence signal.
# Cell Steady Glo was thawed in advance at room temperature. […] Luciferase signal was detected by addition of cell steady glo reagent (100 μl) for 20 minutes on shaker at room temperature and measuring luminescence using cell titre glo protocol on Synergy 2. […]
# The percentage of inhibition from dose response assays was calculated based on the maximum and minimum signals in the assay and the data fitted using 4 parameter logistical fit. […]
substance,measurement,setting,value
Ab7326: allosteric inhibitory anti-Gremlin-1 antibody from a naïve human library; CDRs SEQ ID NOS 4 to 9; mouse IgG1 in mouse experiments,Reduction in overall tumour burden (BLI),"[1]; day 13, 30 mg/kg s.c. twice weekly, vs isotype control Ab101.4",35%
same,Liver metastatic tumour burden (BLI),[1]; vs isotype control,downward trend
same,Lung metastatic tumour burden (ex vivo BLI),[1]; vs isotype control,statistically significant reduction
same,"Restoration of p-SMAD signalling, percentage of SMAD phosphorylation by BMP alone",rhGremlin-1; BMP 2 50 ng/ml,107.2%
same,"Restoration of p-SMAD signalling, percentage of SMAD phosphorylation by BMP alone",rhGremlin-1; BMP 4 25 ng/ml,110.0%
same,"Restoration of p-SMAD signalling, percentage of SMAD phosphorylation by BMP alone",rhGremlin-1; BMP4/7 50 ng/ml,127.0%
same,"Restoration of p-SMAD signalling, percentage of SMAD phosphorylation by BMP alone",rhGremlin-1; BMP 7 200 ng/ml,108.0%
same,"Restoration of p-SMAD signalling, percentage of SMAD phosphorylation by BMP alone",rhGremlin-1; BMP-2/7 50 ng/ml,128.5%
same,Reduction in MM tumour burden (BLI),5TGM1.Bmx1 MM PCs; vs IgG control,~50%
same,Reduction in MM tumour burden (BLI),"5TGM1.Bmx1 MM PCs; vs IgG control, listed as Grem1-neutralising antibody",approximately 50%
same,Tumour burden in the hindlimb bones (BLI),"5TGM1.Bmx1 MM PCs; antibody after tumour cell inoculation, vs IgG control",significant reduction
same,Splenic tumour burden,5TGM1.Bmx1 MM PCs; post-tumour cell inoculation group,downwards trend
same,M-spike intensity relative to serum albumin (SPEP),"5TGM1.Bmx1 MM PCs; week 4, vs IgG control",significantly lower
same,Blocking ability in the Hek-Id1 reporter gene assay,human Gremlin,maintained blocking ability
